Results as given in patent US5843941A, “Ras farnesyl transferase inhibitors” (Genentech, Inc., priority 1994, dated 1998).
Where two headings read alike, the source gives them in different places.

How the values were obtained:
[1] = system: Ras proteins in Met18b-2 cells; assay: Incorporation of [3H]mevalonate into immunoprecipitated Ras proteins in Met18b-2 cells; assay type: cell-based, Chinese hamster; details: FIG. 5
Description: In each experiment, aliquots of the Triton X-100 fraction (300 μg protein, prepared as described above) were incubated with 1 μg anti-Ras monoclonal antibody (Oncogene Sciences, Inc.) overnight at 4° C. on a rotating platform. Immune complexes were precipitated by addition of 25 μl Protein A-agarose suspension that had been pre-coated with goat anti-rat IgG (Oncogene Sciences, Inc.) according to the manufacturer's instructions. After a 30 min incubation at 4° C., the agarose beads were pelleted by centrifugation and washed 5 times with 1 ml each of wash solution (50 mM Tris-HCl, 50 mM NaCl, 0.5% (w/v) deoxycholate, 0.5% (v/v) Nonidet P-40, and 0.1% (w/v) SDS at pH 7.5). 75 μl of 1X SDS sample buffer was added and each sample heated for 5 min at 95° C. before electrophoresis as above.

[2] = system: H-ras(Val12)-transformed rat-1 fibroblasts (rat 2.2 cells); assay: Changes in morphology of H-ras-transformed cells; assay type: cell-based; details: 5 days; FIG. 6A/6B
Description: Compound 27A (denoted as BG269A in the figure) and compound 27B (denoted as BG269B in the figure) were added at 250 μM to test whether these compounds would induce reversion to a more normal phenotype as had been previously shown with microinjection of anti-Ras antibodies (see Feramisco, J. R. et al Nature 314, 639 (1985)). The H-ras transformed cells, denoted as rat 2.2 cells, were generated by transfection of rat-1 fibroblasts as described (see Seeburg, P. H., Colby, W. W., Capon, D. J., Goeddel, D. V., and Levinson, A. D. Nature 312,71 (1984)). Cells that overgrew the monolayer were extracted and plated onto agar to obtain a cell line displaying a fully transformed phenotype. Untransformed rat-1 fibroblasts and src-transformed rat-1 fibroblasts were also treated. The src-transformed cells were generated by co-transfection of rat-1 fibroblasts with pSV3.Neo.src, a vector containing the gene for src as well as the gene that confers G418 resistance, both under control of SV40 early promoters. G418-resistant cell clones that diplayed a transformed phenotype were used to generate the cell line. On day 0, cells were plated in monolayer culture at 3×10^3 cells per well (24-well plates) in 1 ml DMEM supplemented with 10% FCS, 100 U/ml penicillin, 10 μg/ml streptomycin, 2% DMSO, and 0.5 mM DTT with and without 200 μM inhibitor. On day 3, the cells were refed with the same medium. On day 5, the cells were photographed under contrast at a magnification of 100X. […] This change in morphology is remarkably similar to that seen following injection of anti-ras antibodies into ras-transformed cells (see Feramisco, J. R. et al Nature 314, 639 (1985)). Rat-1 fibroblasts transformed with the src oncogene also grew in a multilayered pattern (FIG. 6C), but this was not affected by compound 27A or compound 27B (FIG. 6D).

[3] = system: src-transformed rat-1 fibroblasts; assay: Changes in morphology of src-transformed cells; assay type: cell-based; details: FIG. 6C/6D
Description: (§1) Compound 27A (denoted as BG269A in the figure) and compound 27B (denoted as BG269B in the figure) were added at 250 μM to test whether these compounds would induce reversion to a more normal phenotype as had been previously shown with microinjection of anti-Ras antibodies (see Feramisco, J. R. et al Nature 314, 639 (1985)). The H-ras transformed cells, denoted as rat 2.2 cells, were generated by transfection of rat-1 fibroblasts as described (see Seeburg, P. H., Colby, W. W., Capon, D. J., Goeddel, D. V., and Levinson, A. D. Nature 312,71 (1984)). Cells that overgrew the monolayer were extracted and plated onto agar to obtain a cell line displaying a fully transformed phenotype. Untransformed rat-1 fibroblasts and src-transformed rat-1 fibroblasts were also treated. The src-transformed cells were generated by co-transfection of rat-1 fibroblasts with pSV3.Neo.src, a vector containing the gene for src as well as the gene that confers G418 resistance, both under control of SV40 early promoters. G418-resistant cell clones that diplayed a transformed phenotype were used to generate the cell line. On day 0, cells were plated in monolayer culture at 3×10^3 cells per well (24-well plates) in 1 ml DMEM supplemented with 10% FCS, 100 U/ml penicillin, 10 μg/ml streptomycin, 2% DMSO, and 0.5 mM DTT with and without 200 μM inhibitor. On day 3, the cells were refed with the same medium. […]

[4] = system: untransformed rat-1 fibroblasts; assay: Changes in morphology of untransformed cells; assay type: cell-based; details: FIG. 6E and F
Description: as §1

[5] = system: farnesylated proteins F1, F2 and F3 in Met18b-2 cells; assay: Inhibition of intracellular farnesylation in intact Met18b-2 cells, Triton-soluble proteins F1, F2, F3; assay type: cell-based, Chinese hamster; details: Cricetulus griseus, read-out: EC 90% "B isomer"
Description: To study farnesylation in intact cells we used Met18b-2 cells, a line of Chinese hamster ovary (CHO) cells that takes up [3H]mevalonate efficiently (see Faust, J., and Krieger, M. J. Biol. Chem. 262, 1966 (1987)) owing to the production of a mevalonate transport protein (see Kim, C. M., Goldstein, J. L., Brown, M. S. J. Biol. Chem. 267, 23113 (1992)). The [3H]mevalonate is converted by the cells into [3H]farnesyl pyrophosphate and [3H]geranylgeranyl pyrophosphate, which are then attached to proteins (Kim, C. M., Goldstein, J. L., Brown, M. S. J. Biol. Chem. 267, 23113 (1992)). In the assay, stock cultures of Met18b-2 cells were seeded at a density of 3-105 cells per 60 mm dish in 3 ml of medium A (Dulbecco's modified Eagle medium/Ham's F12 medium (1:1, v/v) containing 100 U/ml penicillin and 100 μg/ml streptomycin) supplemented with 5% (v/v) fetal calf serum (FCS). On day 3, each monolayer was refed with 1 ml medium A supplemented with 1% FCS (dialyzed against 0.15 M NaCl). At this point the cells were treated with 100 μM compactin (see Brown, M. S., Faust, J. R., Goldstein, J. L., Kaneko, I., and Endo, A. J. Biol. Chem. 253, 1121 (1978)) which blocks the synthesis of unlabeled mevalonate within the cells. Each compound was dissolved at 25 mM in DMSO/10 mM DTT immediately before use and 10 μl of this solution added directly. After 2 hr incubation at 37° C., each monolayer received 100 μCi [3H]mevalonate (60 Ci/mmol, American Radiolabeled Chemicals, Inc.) added in 100 μl of the medium A, and the incubation continued for 4 hr. The cells were harvested by rinsing three times with 3 ml of 50 mM Tris-HCl/0.15 M NaCl (pH 7.5). 300 μl of lysis buffer (0.5X Dulbecco's phosphate-buffered saline containing 1% Triton X-100, 5 μg/ml leupeptin, 5 μg/ml pepstatin, 0.5 mM phenylmethylsulfonyl fluoride, and 0.05 U/ml aprotinin) was added to each monolayer. After incubation on ice for 5 mon, the lysates were centrifuged 30 sec in a microfuge at 12,000 g. The resulting supernatant was tranferred to a new tube, and each pellet was resuspended in 60 μl of lysis buffer. Protein concentrations were determined using the BCA protein assay reagent (Pierce) according to the manufacturer's instructions. Detergent-soluble (supernatant) and -insoluble (pellet) samples were mixed with 2X SDS sample buffer (see Laemmli, U. K. Nature 227, 680 (1970)) and heated at 95° C. for 5 min before electrophoresis. Each lane contained 90 μg protein, and was run on a 12.5% SDS-polyacrylamide gel. The gel was dried, treated with ENTENSIFY (NEN-DuPont), and exposed to Kodak XOMAT-AR film for 9 h at -80° C. to allow visualization of all prenylated proteins. Migration of [14C]methylated molecular weight standards (Amersham) were used as markers.
The results of this assay are shown in FIG. 3, using a final concentration of 250 μM for each inhibitor. […] As shown in the figure, none of the control peptides or control benzodiazepine-peptideomimetics altered the prenylation of proteins in intact cells.
Using the same cells and procedures followed above for Example 125, we measured the dose dependence upon the inhibition of farnesylation in intact cells. […] Compound 37B inhibited the famesylation of F1-3 detectably at 10 μM, and almost completely at 25 μM.
In this manner, it is possible to obtain data regarding the comparative potency of these inhibitors upon the level of intracellular farnesylation. We have chosen to report the EC90% values for these inhibitors as the concentration required for a reduction in the Triton- soluble labelling (denoted F-1, F-2, and F-3) to 90% of control cells (untreated).

[6] = molecular target: CAAX farnesyltransferase (Rattus norvegicus, UniProt Q02293+Q04631); assay: In vitro inhibition of CAAX farnesyltransferase; assay type: biochemical; set-up: purified to homogeneity from rat brain homogenates; from tissue; host or cells: rat brain; alternatively recombinant enzyme from a baculovirus expression system; details: Table D
Procedure, shortened: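 Native or recombinant (baculovirus-infected cells, Q-Sepharose purified) farnesyltransferase incubated 30 min at 37 °C. [3H]farnesyl transfer to p21H-ras measured by SDS/trichloroacetic acid precipitation, nitrocellulose filtration and scintillation counting.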

Chain of CAAX farnesyltransferase (Q02293 whole entry, one chain of several): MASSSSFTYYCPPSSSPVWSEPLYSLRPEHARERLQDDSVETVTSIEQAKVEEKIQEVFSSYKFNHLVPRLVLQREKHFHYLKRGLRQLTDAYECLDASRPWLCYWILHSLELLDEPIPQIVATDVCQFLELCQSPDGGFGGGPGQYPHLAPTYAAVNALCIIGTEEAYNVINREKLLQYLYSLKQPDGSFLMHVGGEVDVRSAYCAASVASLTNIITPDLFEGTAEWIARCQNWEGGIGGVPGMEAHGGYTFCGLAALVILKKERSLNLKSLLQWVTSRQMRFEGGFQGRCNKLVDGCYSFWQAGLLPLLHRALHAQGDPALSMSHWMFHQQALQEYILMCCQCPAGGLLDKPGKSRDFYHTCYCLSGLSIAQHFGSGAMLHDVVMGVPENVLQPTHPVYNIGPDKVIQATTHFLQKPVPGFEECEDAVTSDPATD

Row | SMILES | effect of control molecules on [3H]mevalonate incorporation [1] | effect on transformed phenotype (morphology) [2] | effect on morphology of src-transformed cells [3] | effect on morphology of untransformed cells [4] | EC90 [5] [nM] | EC50 ([6]; diastereomer A, read-out: EC50 (μM) "A") [µM] | EC50 ([6]; diastereomer B, read-out: EC50 (μM) "B") [µM]
1 | CSCC[C@H](NC(=O)CN1C(=O)C(N(C)C(=O)[C@@H](N)CS)N=C(c2ccccc2)c2ccccc21)C(=O)O (single isomer, unassigned) [27A] | had no effect | had no effect | not affected | no apparent effect on the morphology of untransformed rat-1 fibroblasts | – | – | –
2 | CN(C(=O)[C@@H](N)CS)C1N=C(c2ccccc2)c2cc(Cl)ccc2N(Cc2ccc(C(F)(F)F)cc2)C1=O (stereo partly shown) [compound 106, N-[[3-[(2-amino-3-mercapto-1-oxopropyl)methylamino]-2,3-dihydro-2-oxo-5-phenyl-7-chloro-1H-1,4-benzodiazepin-1-yl]methyl]-4-trifluoromethylbenzene] | – | – | – | – | 50000 | 0.65 | 0.018
